According to patent US11805773B1, “Nanocomposite including water-soluble nano-polymer and mesoporous silica nanoparticles encapsulated with azole derivatives” (KING FAISAL UNIVERSITY, priority 2023, dated 2023):

Q: Which melting point does the source give for COc1ccc(C2CC(c3ccc(Cl)cc3Cl)=NN2c2nc(-c3ccccc3)cs2)cc1OC (stereo not shown) [1a, 2-(3-(2,4-dichlorophenyl)-5-(3,4-dimethoxyphenyl)-4,5-dihydro-1H-pyrazol-1-yl)-4-phenylthiazole] here?
A: Its melting point is 120 to 122 °C.

Q: With COc1ccc(C2CC(c3ccc(Cl)cc3Cl)=NN2c2nc(-c3ccc(Cl)cc3)cs2)cc1 (stereo not shown) [1d, 4-(4-chlorophenyl)-2-(3-(2,4-dichlorophenyl)-5-(4-methoxyphenyl)-4,5-dihydro-1H-pyrazol-1-yl)thiazole] as the molecule, how does the melting point read?
A: Its melting point is 140 to 141 °C.

Q: Which melting point does the source give for COc1ccc(C2CC(c3ccc(Cl)cc3Cl)=NN2c2nc(-c3ccc(Cl)cc3)cs2)cc1OC (stereo not shown) [1b, 4-(4-chlorophenyl)-2-(3-(2,4-dichlorophenyl)-5-(3,4-dimethoxyphenyl)-4,5-dihydro-1H-pyrazol-1-yl)thiazole] here?
A: The melting point was 158 to 159 °C.

Q: For COc1ccc(C2CC(c3ccc(Cl)cc3Cl)=NN2c2nc(-c3ccccc3)cs2)cc1 (stereo not shown) [1c, 2-(3-(2,4-dichlorophenyl)-5-(4-methoxyphenyl)-4,5-dihydro-1H-pyrazol-1-yl)-4-phenylthiazole], which melting point is on record?
A: The melting point was 72 to 75 °C.
